The results in this text go back to ChEMBL document CHEMBL3988442, “University of Dundee, Small-Polar-MMV Screening Library” (2021).

The structures appear in SMILES notation. Several values for one entry are separate records, joined by “and”; a condition that tells them apart may be missing. Equal entries are not always repeated.

One assay deals with Leishmania donovani. Description: Leishmania intramacrophage assay. The class given is functional, organism-based. The following applies: for IC50: Leishmania donovani.
The test system of the next assay is Trypanosoma brucei. Put plainly: Trypanosoma brucei 72 hour study. The assay is classed as functional, organism-based. The following applies: for IC50: Trypanosoma brucei, 72 h.
Assay [1] in a line: In vitro enzyme assay to detect hydrolysis of chlorophenol red-beta-D-[…] directly proportional to the number of Toxoplasma stably expressing beta-galactosidase. The assay is classed as functional, organism-based, Toxoplasma gondii. As to conditions: for IC50: Toxoplasma gondii.
Assay [2] can be described thus: microbe, parasite or virus in culture. The following applies: Mycobacterium tuberculosis, 96 h, read-out: pIC50 (converted).
Assay [3] in a line: microbe, parasite or virus in culture. The following applies: Mycobacterium tuberculosis, 72 h, read-out: pIC50 (converted).
The next assay has as its system Plasmodium falciparum. Description: Calibr Malaria Delayed Death Assay SOP. The class given is functional, organism-based. As to conditions: for IC50: Plasmodium falciparum.
In another assay the target is ClpP1P2 (Mycobacterium tuberculosis (strain ATCC 25618 / H37Rv), UniProt P9WPC3+P9WPC5). Put plainly: in vitro assay to detect presence of AMC directly proportional to the activity of ClpP1P2. GHDDI collaboration. The class given is functional.
In a further assay the target is T1, Histidine--tRNA ligase (Leishmania infantum, UniProt A4I591).
T1 sequence (A4I591 whole entry): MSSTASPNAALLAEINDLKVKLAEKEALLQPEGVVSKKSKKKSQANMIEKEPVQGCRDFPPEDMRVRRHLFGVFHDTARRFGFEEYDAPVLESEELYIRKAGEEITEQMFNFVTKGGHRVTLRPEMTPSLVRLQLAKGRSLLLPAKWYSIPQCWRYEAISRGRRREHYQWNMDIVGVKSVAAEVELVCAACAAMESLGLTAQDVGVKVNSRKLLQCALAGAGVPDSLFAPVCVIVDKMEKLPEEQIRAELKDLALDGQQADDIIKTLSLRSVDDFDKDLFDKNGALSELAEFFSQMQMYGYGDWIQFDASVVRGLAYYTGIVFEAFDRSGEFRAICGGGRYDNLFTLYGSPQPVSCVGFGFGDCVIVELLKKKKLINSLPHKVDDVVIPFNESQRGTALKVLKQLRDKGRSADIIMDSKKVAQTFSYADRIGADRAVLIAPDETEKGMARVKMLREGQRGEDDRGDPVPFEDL
Description: Leishmania infantum Histidine tRNA synthetase (LdHisRS). The assay is classed as functional.

Another assay deals with Tryptophan--tRNA ligase (Mycobacterium tuberculosis (strain ATCC 25618 / H37Rv), UniProt P9WFT3). Put plainly: Biochemical assay for Mt-TrpRS. The class given is functional.

Usually pIC50 stands for −log10 of the IC50, conventionally taken in molar units.

Sequence of ClpP1P2 (P9WPC5 whole entry): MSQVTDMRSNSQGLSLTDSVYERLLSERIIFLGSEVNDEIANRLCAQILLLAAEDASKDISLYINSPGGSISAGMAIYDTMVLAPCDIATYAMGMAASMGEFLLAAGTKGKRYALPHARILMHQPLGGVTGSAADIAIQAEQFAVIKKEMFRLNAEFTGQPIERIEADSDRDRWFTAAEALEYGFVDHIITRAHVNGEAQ
Sequence of ClpP1P2 (P9WPC3 whole entry): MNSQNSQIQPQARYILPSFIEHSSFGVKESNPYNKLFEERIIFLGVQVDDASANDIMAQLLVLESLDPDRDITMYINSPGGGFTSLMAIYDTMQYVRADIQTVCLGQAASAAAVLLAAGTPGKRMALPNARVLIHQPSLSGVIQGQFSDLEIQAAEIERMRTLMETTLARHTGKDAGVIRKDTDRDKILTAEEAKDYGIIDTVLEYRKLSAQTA
Sequence of Tryptophan--tRNA ligase (P9WFT3 whole entry): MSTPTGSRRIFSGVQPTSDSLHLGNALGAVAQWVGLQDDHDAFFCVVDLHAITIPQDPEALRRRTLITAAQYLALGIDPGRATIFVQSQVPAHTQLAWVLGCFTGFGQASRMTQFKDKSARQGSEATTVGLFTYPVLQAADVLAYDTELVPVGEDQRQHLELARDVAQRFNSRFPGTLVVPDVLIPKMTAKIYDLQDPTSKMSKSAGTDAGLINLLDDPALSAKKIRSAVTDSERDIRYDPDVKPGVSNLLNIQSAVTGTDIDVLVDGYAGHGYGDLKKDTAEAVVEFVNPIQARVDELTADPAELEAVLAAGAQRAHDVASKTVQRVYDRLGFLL

`CCc1cc(=O)[nH]c(-n2nc(C3CC3)cc2NC(=O)C2CC2)n1`: the pIC50 with Leishmania donovani is 4.573; with Trypanosoma brucei it was 5.404 and 5.398; in assay [1], 5.904. The IC50 with Leishmania donovani is 29.8 µM; in the assay on Trypanosoma brucei, 3.41 µM; in [1], 1.58 µM; in assay [2] it was 11.4 µM; in assay [3], 12.5 µM.

Take `O=C(c1cc(-c2ccn(CC3CC3)n2)n2ccccc12)N1CCOCC1`: the pIC50 in the assay on Leishmania donovani was 4.802; with Trypanosoma brucei, 5.586 and 5.592 and 5.253; in the assay with Plasmodium falciparum it was 5.917. The IC50 in the assay on Leishmania donovani is 18.9 µM; with Plasmodium falciparum, 1.01 µM; on ClpP1P2, over 100 µM; in [2], over 50.1 µM; in assay [3], 27.8 µM.

Regarding `Cc1[nH]/c(=N\C(=O)c2csc(NCC(C)C)n2)sc1C`, the pIC50 is 4.614 in the assay on Leishmania donovani; 5.208 and 5.15 in the assay on Trypanosoma brucei. For the same compound, the IC50 is 19.4 µM in the assay with Leishmania donovani, 6.25 µM in the assay on Trypanosoma brucei and 4.62 µM in [1].

Consider `CN1CCN(CC(NCc2cccc(O)c2)c2ccccc2)CC1` (stereo not given), for which the IC50 in the assay on Leishmania donovani is 13.7 µM. Moreover, in the assay on Trypanosoma brucei, the pIC50 was 5.312 and 5.375; the IC50 is 4.3 µM.

Consider `Cc1ccc(CNC(CN2CCN(C)CC2)c2ccccc2)cc1C` (stereo not given), for which the IC50 in the assay with Leishmania donovani was 4.57 µM. In the assay on Trypanosoma brucei, the pIC50 was 5.711 and 5.621; the IC50 was 1.7 µM.

`COc1ccc2[nH]cc(-c3ccnc(NC4CCCC4)n3)c2c1`: the pIC50 in the assay on Leishmania donovani is 4.561; with Trypanosoma brucei, 5.019 and 4.85. Also, the IC50 in the assay on Leishmania donovani is 21.8 µM; in the assay with Trypanosoma brucei, 14.6 µM; in assay [1], 2.65 µM.

Consider `CCN(Cc1c(F)cccc1Cl)c1cc(C2CCNCC2)nc(C)n1`, for which the pIC50 in the assay with Leishmania donovani was 5.445; in the assay with Trypanosoma brucei, 5.239 and 5.238; in the assay with Plasmodium falciparum it was 6.254. For the same compound, the IC50 is 3.56 µM in the assay on Leishmania donovani; 4.96 µM in the assay with Trypanosoma brucei; 4.56 µM in assay [1]; 0.495 µM in the assay with Plasmodium falciparum; 24.4 µM in [2]; 37.4 µM in assay [3].

In the assay on Leishmania donovani, `COc1ccc(-c2nc(CN3CCCC(OC)C3)c(C)o2)c(F)c1` (stereo not given) gave a pIC50 of 4.638 and an IC50 of 30.9 µM. In the assay on Trypanosoma brucei, the pIC50 is 5.649 and 5.647; the IC50 is 2.36 µM.

In the case of `CC(N)C(=O)N1CCC(Oc2cccc(C(F)(F)F)c2)CC1` (stereo not given), in the assay with Leishmania donovani, the pIC50 is given as 4.638 and the IC50 is 19.3 µM. Further, in the assay on Trypanosoma brucei, the pIC50 was 5.074 and 4.999; the IC50 was 13.2 µM.

As to `Cc1nc2c(c(NCc3cc4ccccc4s3)n1)CCNCC2`, the pIC50 was 5.15 in the assay on Leishmania donovani; 5.606 and 5.633 with Trypanosoma brucei. The IC50 was 5.79 µM in the assay on Leishmania donovani, 2.29 µM with Trypanosoma brucei, 38 µM in assay [2] and over 50.1 µM in assay [3].

For the compound `CCCc1ccc(C(C)Nc2ncnc3c2CCNC3)cc1` (stereo not given), the pIC50 with Leishmania donovani was 4.733; in the assay on Trypanosoma brucei, 4.735 and 4.73. Besides, the IC50 is 21.6 µM in the assay with Leishmania donovani and 20.2 µM with Trypanosoma brucei.

With `CCC1CN(C(=O)c2csc3nc(-c4ccc(Cl)cc4)cn23)CCN1` (stereo not given), the pIC50 in the assay with Leishmania donovani was 4.877; in the assay on Trypanosoma brucei, 5.161 and 5.156. Moreover, the IC50 with Leishmania donovani is 12.4 µM; with Trypanosoma brucei, 7.75 µM; in assay [2], 49.2 µM; in [3] it was 17.9 µM.

On to `CCCOc1ccccc1CCCNc1ncnc2oc(C)nc12`, for which the pIC50 in the assay on Leishmania donovani was 4.492 and 4.801; with Trypanosoma brucei it was 5.583 and 5.61. Moreover, the results for the IC50 (with Trypanosoma brucei; in [2]; in [3]) were 4.09 µM, over 50.1 µM and 25.4 µM, respectively.

In the assay with Leishmania donovani, `CC(Nc1ncnc2c1CCNC2)c1ccc2c(c1)CCCC2` (stereo not given) gave a pIC50 of 4.725 and an IC50 of 25 µM. In addition, in the assay with Trypanosoma brucei, the pIC50 was 4.894 and 4.867; the IC50 was 8.18 µM.

For the compound `Cc1sc2nc(CCN)nc(N(C)CCCC3CCCO3)c2c1C` (stereo not given), the IC50 with Leishmania donovani is over 50.1 µM; in the assay with Trypanosoma brucei it was 22.5 µM. Moreover, in the assay on Trypanosoma brucei, the pIC50 was 4.729 and 4.748.

For `CCNC(=O)[C@@H]1C[C@@H](N)CN1Cc1ccc(Sc2ccc(C)cc2)o1`, the negative-log IC50 (pIC50) in the assay with Leishmania donovani is 4.875; in the assay on Trypanosoma brucei, 5.166 and 5.161. Further, the IC50 in the assay on Leishmania donovani is 13.8 µM; in the assay with Trypanosoma brucei it was 6.83 µM.

As to `Clc1cccc(C2CCN(c3ncnc4c3CCNC4)C2)c1` (stereo not given), the pIC50 was 4.674 with Leishmania donovani; 4.718 and 4.683 in the assay with Trypanosoma brucei. In addition, the IC50 in the assay on Leishmania donovani is 23.9 µM; with Trypanosoma brucei, 19.9 µM; in assay [2] it was 29.6 µM; in assay [3], over 50.1 µM.

As for `OC(CNc1nc(C2CCCC2)nc2c1CCNCC2)C(F)(F)F` (stereo not given), in the assay on Leishmania donovani, the pIC50 was 4.72 and 4.703; the IC50 is 18.4 µM. For the same compound, in the assay with Trypanosoma brucei, the pIC50 is 5.186 and 5.15; the IC50 is 6.61 µM.

In the assay with Leishmania donovani, `CC(Nc1ncnc2c1CCNC2)c1ccc(C(C)(C)C)cc1` (stereo not given) gave a pIC50 of 4.856 and an IC50 of 19.6 µM. Also, in the assay with Trypanosoma brucei, the pIC50 is 4.656 and 4.706; the IC50 was 20.6 µM.

Turning to `Nc1cc(N2CCC(c3cc(Cc4ccccc4)n[nH]3)CC2)ccn1`, the pIC50 in the assay with Leishmania donovani is 4.671; with Trypanosoma brucei, 5.138 and 5.184; in [1], 5.141. The IC50 with Leishmania donovani was 17.4 µM; in the assay on Trypanosoma brucei, 6.85 µM; in [1], 4.92 µM; against Histidine--tRNA ligase, 69.6 µM and 73.8 µM.

On to `COCCN(CC1CC1)c1nc(CCN)nc2sc(C)c(C)c12`, for which the IC50 in the assay on Leishmania donovani was over 25.1 µM; with Trypanosoma brucei it was 16.2 µM. Also, the pIC50 in the assay with Trypanosoma brucei is 4.814 and 4.866.

Consider `CN(Cc1cccc(O)c1)CC1CCCN(CCc2ccc(Cl)cc2)C1` (stereo not given), for which the negative logarithm of the IC50 (pIC50) in the assay with Leishmania donovani is 5.277 and 4.854; in the assay with Trypanosoma brucei it was 5.504 and 5.492; with Plasmodium falciparum it was 6.224. Also, the figures for the IC50 in the assay with Trypanosoma brucei and with Plasmodium falciparum were 3.82 µM and 0.634 µM, respectively.

On to `Cc1nc(C2(O)CCCNCC2)sc1CCOc1ccc(F)c(F)c1.Cl` (stereo not given), for which the pIC50 in the assay with Leishmania donovani is 4.936; in the assay with Trypanosoma brucei, 5.175 and 5.131. The IC50 is 11.6 µM with Leishmania donovani, 6.99 µM in the assay on Trypanosoma brucei and over 195 µM on Tryptophan--tRNA ligase.

On to `Cc1nc(C2(O)CCCNCC2)sc1CCOc1ccc(Cl)cc1.Cl` (stereo not given), for which the pIC50 in the assay with Leishmania donovani is 4.792; in the assay on Trypanosoma brucei it was 5.216 and 5.242. Moreover, the IC50 was 8.46 µM in the assay with Leishmania donovani, 5.07 µM with Trypanosoma brucei and 11 µM in assay [1].
